# Assay results taken from US4012576A, “Antibiotic complex Bu 2183” (priority 1975, dated 1977).
# Entries after “also recorded” stand apart in the source; their conditions may differ. Where two headings read alike, the source gives them in different places.
# What was measured:
# Solubility = assay type: physicochemical; settings: base
# [1] = tested on: Gram-positive and Gram-negative bacteria; test: In vitro antibacterial activity (general); assay type: cell-based
# Procedure: (§1) The minimum inhibitory concentrations (MIC) of Bu-2183 A and B were determined against a wide variety of bacteria by the two-fold agar dilution method on Nutrient Agar plates. The inocula-replicating device of Steers et al. was used. Inoculum size was adjusted to be 10^4 dilution of overnight culture of the test organisms in Heart Infusion Broth (Difco). The results are shown in Table 6 along with those of kanamycin which was comparatively tested as a reference antibiotic.
# Prov. stuartii A20894 = test: MIC, two-fold agar dilution on Nutrient Agar; assay type: cell-based; settings: Providencia stuartii, A20894; Table 7, Ps-2; read-out: MIC
# Procedure: as §1
# Pr. mirabilis A9554 = test: MIC, two-fold agar dilution on Nutrient Agar; assay type: cell-based; settings: Proteus mirabilis, A9554, Table 7, Pm-1; read-out: MIC
# Procedure: as §1
# Ps. aeruginosa A20653 = test: MIC, two-fold agar dilution on Nutrient Agar; assay type: cell-based; settings: Pseudomonas aeruginosa, A20653, Table 7, Pa-12; read-out: MIC
# Procedure: as §1
# E. coli PO 1495 = test: MIC, two-fold agar dilution on Nutrient Agar; assay type: cell-based; settings: Escherichia coli, PO1495; Table 7, Ec-2; read-out: MIC
# Procedure: as §1
# [2] = tested on: K. pneumoniae Type 22-3038; test: MIC, two-fold agar dilution on Nutrient Agar; assay type: cell-based; settings: Klebsiella pneumoniae, TYPE223038; Table 7, Kp-8 (printed Type 22-3028); read-out: MIC
# Procedure: as §1
# E. coli NIHJ = test: MIC, two-fold agar dilution on Nutrient Agar; assay type: cell-based; settings: Escherichia coli, Table 7, Ec-1; read-out: MIC
# Procedure: as §1
# E. coli JR 35/C600 = test: MIC, two-fold agar dilution on Nutrient Agar; assay type: cell-based; settings: Escherichia coli, JR35/C600
# Procedure: as §1
# Ps. aeruginosa GN 315 = test: MIC, two-fold agar dilution on Nutrient Agar; assay type: cell-based; settings: Pseudomonas aeruginosa, GN315; Table 7, Pa-27; read-out: MIC
# Procedure: as §1
# Ent. cloacae A21006 = test: MIC, two-fold agar dilution on Nutrient Agar; assay type: cell-based; settings: Enterobacter cloacae, A21006; Table 7, El-12; read-out: MIC
# Procedure: as §1
# E. coli NR 79/W677 = test: MIC, two-fold agar dilution on Nutrient Agar; assay type: cell-based; settings: Escherichia coli, NR79/W677, Table 7, Ec-9
# Procedure: as §1
# E. coli A20107 = test: MIC, two-fold agar dilution on Nutrient Agar; assay type: cell-based; settings: Escherichia coli, A20107, Table 7, Ec-49; read-out: MIC
# Procedure: as §1
# S. aureus D193 = test: MIC, two-fold agar dilution on Nutrient Agar; assay type: cell-based; settings: Staphylococcus aureus, D193; Table 7, Sa-3; read-out: MIC
# Procedure: as §1
# Ps. aeruginosa A9930 = test: MIC, two-fold agar dilution on Nutrient Agar; assay type: cell-based; settings: Pseudomonas aeruginosa, A9930; Table 7, Pa-3; read-out: MIC
# Procedure: as §1
# Pr. morganii A20031 = test: MIC, two-fold agar dilution on Nutrient Agar; assay type: cell-based; settings: Morganella morganii, A20031; Table 7, Pg-2; read-out: MIC
# Procedure: as §1
# E. coli JR 66/W677 = test: MIC, two-fold agar dilution on Nutrient Agar; assay type: cell-based; settings: Escherichia coli, JR66/W677, Table 7, Ec-53
# Procedure: as §1
# S. aureus Smith = test: MIC, two-fold agar dilution on Nutrient Agar; assay type: cell-based; settings: Staphylococcus aureus, Table 7, Sa-2; read-out: MIC
# Procedure: as §1
# E. coli ML 1630 = test: MIC, two-fold agar dilution on Nutrient Agar; assay type: cell-based; settings: Escherichia coli, ML1630, Table 7, Ec-5; read-out: MIC
# Procedure: as §1
# E. coli A20895 = test: MIC, two-fold agar dilution on Nutrient Agar; assay type: cell-based; settings: Escherichia coli, A20895, Table 7, Ec-62; read-out: MIC
# Procedure: as §1
# Ps. aeruginosa A20601 = test: MIC, two-fold agar dilution on Nutrient Agar; assay type: cell-based; settings: Pseudomonas aeruginosa, A20601, Table 7, Pa-21; read-out: MIC
# Procedure: as §1
# Pr. vulgaris A9436 = test: MIC, two-fold agar dilution on Nutrient Agar; assay type: cell-based; settings: Proteus vulgaris, A9436, Table 7, Pv-1; read-out: MIC
# Procedure: as §1
# Ps. aeruginosa A20896 = test: MIC, two-fold agar dilution on Nutrient Agar; assay type: cell-based; settings: Pseudomonas aeruginosa, A20896, Table 7, Pa-24; read-out: MIC
# Procedure: as §1
# S. aureus D137 = test: MIC, two-fold agar dilution on Nutrient Agar; assay type: cell-based; settings: Staphylococcus aureus, D137, Table 7, Sa-9; read-out: MIC
# Procedure: as §1
# S. aureus D133 = test: MIC, two-fold agar dilution on Nutrient Agar; assay type: cell-based; settings: Staphylococcus aureus, D133, Table 7, Sa-4; read-out: MIC
# Procedure: as §1
# K. pneumoniae D11 = test: MIC, two-fold agar dilution on Nutrient Agar; assay type: cell-based; settings: Klebsiella pneumoniae, D11, Table 7, Kp-1; read-out: MIC
# Procedure: as §1
# Ent. cloacae A20364 = test: MIC, two-fold agar dilution on Nutrient Agar; assay type: cell-based; settings: Enterobacter cloacae, A20364; Table 7, El-2; read-out: MIC
# Procedure: as §1
# E. coli R 5 = test: MIC, two-fold agar dilution on Nutrient Agar; assay type: cell-based; settings: Escherichia coli, R5, Table 7, Ec-55
# Procedure: as §1
# E. coli A20732 = test: MIC, two-fold agar dilution on Nutrient Agar; assay type: cell-based; settings: Escherichia coli, A20732; Table 7, Ec-72; read-out: MIC
# Procedure: as §1
# Ser. marcescens A20019 = test: MIC, two-fold agar dilution on Nutrient Agar; assay type: cell-based; settings: Serratia marcescens, A20019; Table 7, Sm-1; read-out: MIC
# Procedure: as §1
# Ser. marcescens A21247 = test: MIC, two-fold agar dilution on Nutrient Agar; assay type: cell-based; settings: Serratia marcescens, A21247, Table 7, Sm-16; read-out: MIC
# Procedure: as §1
# Ps. aeruginosa No. 130 = test: MIC, two-fold agar dilution on Nutrient Agar; assay type: cell-based; settings: Pseudomonas aeruginosa, NO.130; Table 7, Pa-16; read-out: MIC
# Procedure: as §1
# Pseudomonas sp. A20621 = test: MIC, two-fold agar dilution on Nutrient Agar; assay type: cell-based; settings: Pseudomonas, SP.A20621; Table 7, Px-10; read-out: MIC
# Procedure: as §1
# S. aureus A20239 = test: MIC, two-fold agar dilution on Nutrient Agar; assay type: cell-based; settings: Staphylococcus aureus, A20239, Table 7, Sa-10; read-out: MIC
# Procedure: as §1
# Titration in water = assay type: physicochemical
smiles,measurement,setting,value
CCCC(=O)NC1C(CO)OC(OC(C(O)CN)C(N)C(O)CO)C(O)C1O (stereo not drawn) [Bu-2183 A2],solubility in methanol and ethanol,Solubility,slightly soluble
same,"solubility in n-butanol, acetone and other common organic solvents",Solubility,practically insoluble
same,solubility in water,Solubility,soluble
same,bio-activity,[1],bio-active
same,activity of Bu-2183 A2 relative to Bu-2183 A and B,[1]; in vitro,more active than Bu-2183 B but less active than Bu-2183 A
same,antibacterial spectrum,[1]; in vitro,broad spectrum of antibacterial activity
same,MIC,Prov. stuartii A20894,> 100 µg/mL
same,MIC,Pr. mirabilis A9554,50 µg/mL
same,MIC,Ps. aeruginosa A20653,> 100 µg/mL
same,MIC,E. coli PO 1495,> 100 µg/mL
same,MIC,[2],100 µg/mL
same,MIC,E. coli NIHJ,100 µg/mL
same,MIC,E. coli JR 35/C600,6.3 µg/mL
same,MIC,Ps. aeruginosa GN 315,100 µg/mL
same,MIC,Ent. cloacae A21006,100 µg/mL
same,MIC,E. coli NR 79/W677,25 µg/mL
same,MIC,E. coli A20107,50 µg/mL
same,MIC,S. aureus D193,50 µg/mL
same,MIC,Ps. aeruginosa A9930,50 µg/mL
same,MIC,Pr. morganii A20031,50 µg/mL
same,MIC,E. coli JR 66/W677,25 µg/mL
same,MIC,S. aureus Smith,25 µg/mL
same,MIC,E. coli ML 1630,50 µg/mL
same,MIC,E. coli A20895,50 µg/mL
same,MIC,Ps. aeruginosa A20601,> 100 µg/mL
same,MIC,Pr. vulgaris A9436,100 µg/mL
same,MIC,Ps. aeruginosa A20896,> 100 µg/mL
same,MIC,S. aureus D137,100 µg/mL
same,MIC,S. aureus D133,100 µg/mL
same,MIC,K. pneumoniae D11,12.5 µg/mL
same,MIC,Ent. cloacae A20364,100 µg/mL
same,MIC,E. coli R 5,25 µg/mL
same,MIC,E. coli A20732,25 µg/mL
same,MIC,Ser. marcescens A20019,> 100 µg/mL
same,MIC,Ser. marcescens A21247,> 100 µg/mL
same,MIC,Ps. aeruginosa No. 130,100 µg/mL
same,MIC,Pseudomonas sp. A20621,> 100 µg/mL
same,MIC,S. aureus A20239,100 µg/mL
NC[C@H](O)[C@@H](O[C@H]1O[C@H](CO)[C@@H](N)[C@H](O)[C@H]1O)[C@H](N)[C@H](O)CO [Bu-2183 D],solubility in methanol and ethanol,Solubility,slightly soluble
same,"solubility in n-butanol, acetone and other common organic solvents",Solubility,practically insoluble
same,solubility in water,Solubility,soluble
same,pKa,Titration in water; read-out: pKa' (first value),6.95
same,pKa,Titration in water; read-out: pKa' (second value),9.68
same,bio-activity,[1],bio-inactive
same,bio-activity,[1]; listed as D,bio-inactive; also recorded: bioinactive
